Data on one molecule can be found in patent US10519107B2, “Sulfonamide compounds and their use as STAT5 inhibitors” (Governing Council of the University of Toronto, priority 2014, dated 2019).

Data set [1] concerns the target T1, STAT5.
T1 construct: rows headed: KD (koff/kon) STAT5
The note with it: SPR, 25° C., Langmuir 1:1 binding model; read-out: KD (koff/kon) STAT5. How it is done:
Interactions of His-tagged STAT3 and STAT5 with small molecules were investigated using SPR spectroscopy. The binding experiments were carried on a ProteOn XPR36 (Bio-Rad) biosensor at 25° C. using the HTE sensor chip (Bio-Rad, Ontario, Canada). The flow cells of the sensor chip were loaded with a nickel solution at 30 μL/min for 120 s to saturate the Tris-NTA surface with Ni(II) ions. […] When the injection of the compounds was completed, running buffer was allowed to flow over the immobilized substrates for the non-specifically bound inhibitors to dissociate for 600 s. Following dissociation of the compounds, the chip surface was regenerated with an injection of 1 M NaCl at a flow rate of 100 μL/min for 18 s. Interspot channel reference was used for non-specific binding corrections and the blank channel used with each analyte injection served as a double reference to correct for possible baseline drift. Data were analysed using ProteOn Manager Software version 3.1.

Data set [2] concerns the target T2, wildtype STAT5B protein (SH2 domain) (Homo sapiens, UniProt P51692).
T2 sequence (P51692 1-787): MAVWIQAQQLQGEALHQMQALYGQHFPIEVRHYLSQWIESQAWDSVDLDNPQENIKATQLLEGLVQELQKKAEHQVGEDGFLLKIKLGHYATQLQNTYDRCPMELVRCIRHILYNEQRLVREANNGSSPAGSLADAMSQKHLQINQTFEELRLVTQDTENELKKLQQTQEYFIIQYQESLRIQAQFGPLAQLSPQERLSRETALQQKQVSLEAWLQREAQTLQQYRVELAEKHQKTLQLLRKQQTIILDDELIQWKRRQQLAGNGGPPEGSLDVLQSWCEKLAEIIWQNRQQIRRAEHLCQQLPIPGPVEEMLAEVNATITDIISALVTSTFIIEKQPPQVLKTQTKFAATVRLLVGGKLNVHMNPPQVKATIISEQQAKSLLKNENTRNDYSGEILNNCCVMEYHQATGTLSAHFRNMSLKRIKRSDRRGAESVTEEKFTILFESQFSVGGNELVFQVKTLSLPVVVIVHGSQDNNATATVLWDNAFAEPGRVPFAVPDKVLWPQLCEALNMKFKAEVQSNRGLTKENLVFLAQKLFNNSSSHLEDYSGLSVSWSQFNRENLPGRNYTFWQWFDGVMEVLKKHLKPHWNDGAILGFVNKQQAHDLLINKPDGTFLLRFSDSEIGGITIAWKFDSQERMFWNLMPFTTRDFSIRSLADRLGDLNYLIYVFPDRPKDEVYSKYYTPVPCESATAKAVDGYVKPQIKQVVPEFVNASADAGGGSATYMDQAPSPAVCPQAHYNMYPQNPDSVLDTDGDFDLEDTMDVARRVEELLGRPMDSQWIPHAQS
Put plainly: Fluorescence polarization competitive binding, STAT5b. As to conditions: FP. How it is done: Fluorescence assays were performed in flat black 384-well plates (Corning) and fluorescence polarization measurements were taken with the Infinite M1000 machine (Tecan, Crailsheim, Germany). The buffer conditions for all assays were 20 mM HEPES, 50 mM NaCl, 1 mM EDTA, 2 mM dithiothreitol, pH 7.5 and the final DMSO concentration in the wells was kept constant at 10%.
The point at which 80% of the fluoresceinated-phosphopeptide was bound was used as the optimal protein concentration required for the competitive fluorescent polarization assays.
Compounds were titrated at concentrations ranging from 1->60,000 nM and incubated for a further 15 minutes at which point fluorescence polarization measurements were taken in triplicate. The final well concentrations of the fluoresceinated-phosphopeptide and STAT5B were 10 nM and 250 nM, respectively.
The resulting fluorescence polarization measurements were normalized and plotted against compound concentration on a logarithmic scale. The raw data was fitted with a standard dose-normalized response inhibition curve using GraphPad Prism 6 software.
Modified Cheng-Pruskoff equation containing a correction factor for protein concentration.
A general note: Polarisation of emitted light reports the rotation of a fluorescent probe.

The target of data set [3] is T3, wildtype STAT1 protein (Homo sapiens, UniProt P42224).
T3 sequence (P42224 1-750): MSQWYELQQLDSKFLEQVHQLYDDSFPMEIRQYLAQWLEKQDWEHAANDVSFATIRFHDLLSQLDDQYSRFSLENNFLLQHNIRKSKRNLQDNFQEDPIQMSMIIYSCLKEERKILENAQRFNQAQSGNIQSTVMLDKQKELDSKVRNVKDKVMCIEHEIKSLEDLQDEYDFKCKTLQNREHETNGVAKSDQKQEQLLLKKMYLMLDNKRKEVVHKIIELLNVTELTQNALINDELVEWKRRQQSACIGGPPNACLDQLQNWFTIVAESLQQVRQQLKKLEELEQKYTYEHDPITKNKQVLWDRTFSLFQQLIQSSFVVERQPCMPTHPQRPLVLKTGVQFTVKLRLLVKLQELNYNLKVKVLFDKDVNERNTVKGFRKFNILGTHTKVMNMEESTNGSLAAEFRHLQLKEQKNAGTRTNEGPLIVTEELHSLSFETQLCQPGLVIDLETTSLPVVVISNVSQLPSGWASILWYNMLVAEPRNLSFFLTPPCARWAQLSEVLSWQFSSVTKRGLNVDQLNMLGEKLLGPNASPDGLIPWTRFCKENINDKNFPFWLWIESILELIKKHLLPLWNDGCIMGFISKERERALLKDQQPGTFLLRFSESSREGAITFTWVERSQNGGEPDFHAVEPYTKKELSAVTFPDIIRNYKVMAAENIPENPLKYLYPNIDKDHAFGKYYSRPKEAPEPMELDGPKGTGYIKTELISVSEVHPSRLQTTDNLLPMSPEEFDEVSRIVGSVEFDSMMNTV
Description: Fluorescence polarization competitive binding, STAT1. As to conditions: FP; read-out: IC50, disruption of phosphopeptide-STAT1 complex.

For data set [4], the system named is MDA-MB-231 breast cancer cells. Description: Cell viability, MDA-MB-231. Format: cell-based. How it is done:
Breast carcinoma lines MDA-MB-231 and MDA-MB-468 were grown in dulbecco's modified eagles medium (DMEM) supplemented with 10% FBS (sigma). […] As a control, cells were treated with the DMSO alone.

Data set [5] relates to pSTAT5. Description: Western blotting of pSTAT5 in MV-4;11 cells. Format: cell-based, Human. An excerpt: (§1) Correspondingly, western blot analysis for protein levels of pSTAT5 and downstream target gene expression were also investigated within the AML cell line, MV-4; 11.
Background: A western blot detects proteins with antibodies after separation by electrophoresis.

Data set [6] has as its system MCL-1, cleaved PARP-1. Description: Western blotting of apoptosis and MCL-1 in MV-4;11 cells. The format is cell-based, Human.
Source text: as §1

The nature of data set [7]: Metabolic stability in mouse hepatocytes. The format is in vitro ADME. As to conditions: 120 min. How it is done: 13a was then evaluated within intact human and mouse hepatocytes. Like the s9 fractions, Verapamil was used as a positive control in the assay. Cryopreserved hepatocytes were thawed and plated to a working cell density of 0.5×10^6 viable cell/mL.

Structures are written as SMILES.

For the molecule `CC(C)(C)c1cc(CN(C(=O)CN(Cc2ccc(Cl)cc2)S(=O)(=O)c2c(F)c(F)c(F)c(F)c2F)c2ccc(C(=O)O)c(O)c2)cc(C(C)(C)C)c1` [Compound 13a, 4-(2-((N-(4-chlorobenzyl)-2,3,4,5,6-pentafluorophenyl)sulfonamido)-N-(3,5-di-tert-butylbenzyl)acetamido)-2-hydroxybenzoic Acid], in data set [1], the Kd was determined as 0.0419 ± 0.004 µM. The IC50 in data set [2] (5-FAM-GpYLVLDKW 10 nM, STAT5B 250 nM) is 0.37 µM; in data set [3], above 150 µM. In addition, the affinity in data set [2] (converted from IC50 with Equation 1), expressed as Ki, was 0.15 µM. Further, the “less cytotoxic in MDA-MB-231 than in high pSTAT5 leukemic cell line” value in data set [4] is listed as 3 fold. The pSTAT5 level result in data set [5] (MV-4;11, 5 h) is “dose-dependent decrease”. For the same molecule, the pSTAT5 phosphorylation result in data set [5] (MV-4;11, 24 h, 10 μM) is on record as “complete ablation”. The “downstream target MCL-1” value in data set [6] (MV-4;11, 10 μM, 24 h) is given as “complete knockdown”. The apoptosis result in data set [6] (MV-4;11, 24 h) was “initiation of apoptosis was observed”. Moreover, the “recovered in mouse hepatocytes” value in data set [7] came out at 53.37%. For the same molecule, in data set [7] (boiled hepatocytes), the “recovered in boiled mouse hepatocytes (negative control)” value is around 85%.

The IC50 is the concentration needed to halve the response being measured. As a reminder, the Ki is a dissociation constant, usually derived from enzyme kinetics or from competition with a known ligand.
